The results in this text go back to US6514911B1, “Substituted oxadiazines useful as pesticides” (Uniroyal Chemical Company, Inc., priority 2002, dated 2003).

The structures appear in SMILES notation.

Format in all cases: in vivo
The subject of assay [1] is switchgrass (Panicum virgahim L.) (SG). The assay can be described thus: Preemergence herbicide test, soil drench, switchgrass. The note with it: Panicum, 336 h, 10 lbs/A (11.2 kg/ha) soil drench, two weeks after treatment, vs untreated checks, read-out: Percent Weed Control SG. A digest of the protocol:
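Preemergence soil drench at 10 pounds/acre (11.2 kg/ha), 46 mL of 250 ppm aqueous solution (acetone, ethoxylated sorbitan monolaurate) applied to pots sown with switchgrass seed. Percent weed control versus untreated checks scored two weeks after treatment.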

Assay [2] has as its system green foxtail (Setaria virdis (L.) Beauv.) (GF). The assay can be described thus: Postemergence herbicide test, foliar spray, green foxtail. Conditions: 3000 ppm foliar spray to drip point, treated six days after emergence, two weeks after treatment. On the procedure:
To illustrate the effectiveness of the previously described substituted oxadiazines of this invention as preemergence herbicides, 300 mg of the chemical was dissolved in a composition comprising 10 mL acetone to which 30 mg of tile emulsifying agent, ethoxylated sorbitan monolaurate, was added. The solution was diluted to 100 mL with distilled water. Ten milliliters of this 3000 ppm solution was diluted to 250 ppm with distilled water. The chemical was applied at the rate of 10 pounds/acre (11.2 kg/ha) by drenchings 46 mL of the 250 ppm solution on the surface of soil in 41⁄2 inch (11.25 cm) plastic pots wherein seeds of the following weeds had been planted: green foxtail (Setaria […].) Beauv.) (GF). To illustrate the effectiveness of the described substituted oxadiazines as postemergence herbicides, the 3000 ppm solution described under Example 5 was atomized with a conventional DeVilbissTM sprayer, wetting the foliage to the drip point. The weeds, which were the same species as described in Example 5, were treated six days after emergence. The percent weed control was evaluated two weeks after treatment.

For assay [3], the system named is tall morningglory (Ipomoea purpurea (L.) Roth) (TM). Description: Postemergence herbicide test, foliar spray, tall morningglory. The note with it: 3000 ppm foliar spray to drip point, treated six days after emergence, two weeks after treatment. As for the experimental part: To illustrate the effectiveness of the previously described substituted oxadiazines of this invention as preemergence herbicides, 300 mg of the chemical was dissolved in a composition comprising 10 mL acetone to which 30 mg of tile emulsifying agent, ethoxylated sorbitan monolaurate, was added. The solution was diluted to 100 mL with distilled water. Ten milliliters of this 3000 ppm solution was diluted to 250 ppm with distilled water. The chemical was applied at the rate of 10 pounds/acre (11.2 kg/ha) by drenchings 46 mL of the 250 ppm solution on the surface of soil in 4½ inch (11.25 cm) plastic pots wherein seeds of the following weeds had been planted: tall morningglory (Ipomoea purpurea (L.) Roth) (TM), To illustrate the effectiveness of the described substituted oxadiazines as postemergence herbicides, the 3000 ppm solution described under Example 5 was atomized with a conventional DeVilbiss™ sprayer, wetting the foliage to the drip point. The weeds, which were the same species as described in Example 5, were treated six days after emergence. The percent weed control was evaluated two weeks after treatment.

The test system of assay [4] is prickly sida (Sida spinosa L.) (PS). The assay can be described thus: Postemergence herbicide test, foliar spray, prickly sida. Conditions: 3000 ppm foliar spray to drip point, treated six days after emergence, two weeks after treatment. On the procedure:
To illustrate the effectiveness of the previously described substituted oxadiazines of this invention as preemergence herbicides, 300 mg of the chemical was dissolved in a composition comprising 10 mL acetone to which 30 mg of tile emulsifying agent, ethoxylated sorbitan monolaurate, was added. The solution was diluted to 100 mL with distilled water. Ten milliliters of this 3000 ppm solution was diluted to 250 ppm with distilled water. The chemical was applied at the rate of 10 pounds/acre (11.2 kg/ha) by drenchings 46 mL of the 250 ppm solution on the surface of soil in 41⁄2 inch (11.25 cm) plastic pots wherein seeds of the following weeds had been planted: prickly […] spinosa L.) (PS), To illustrate the effectiveness of the described substituted oxadiazines as postemergence herbicides, the 3000 ppm solution described under Example 5 was atomized with a conventional DeVilbissTM sprayer, wetting the foliage to the drip point. The weeds, which were the same species as described in Example 5, were treated six days after emergence. The percent weed control was evaluated two weeks after treatment.

The subject of assay [5] is barnyardgrass (Echinochloa crus-galli (L.) Beauv.) (BG). Description: Preemergence herbicide test, soil drench, barnyardgrass. The note with it: Echinochloa crus-galli, 336 h, 10 lbs/A (11.2 kg/ha) soil drench, two weeks after treatment, vs untreated checks, read-out: Percent Weed Control BG. In outline:
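Compound formulated in acetone with ethoxylated sorbitan monolaurate, diluted to 250 ppm and drenched onto soil surface of seeded pots at 10 pounds/acre (11.2 kg/ha), preemergence. Percent weed control versus untreated checks scored two weeks after treatment.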

Assay [6] has as its system velvetleaf (Abutilon theophrasti Medik.) (VL). Description: Preemergence herbicide test, soil drench, velvetleaf. Conditions: Abutilon theophrasti, 336 h, 10 lbs/A (11.2 kg/ha) soil drench, two weeks after treatment, vs untreated checks, read-out: Percent Weed Control VL. A digest of the protocol: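 Compound in acetone/ethoxylated sorbitan monolaurate, diluted to 250 ppm in water, was drenched onto the soil surface of pots sown with velvetleaf at 10 lb/acre (11.2 kg/ha). Percent control versus untreated checks was rated two weeks after treatment.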

As for `FC(F)(F)C1=NC(C(F)(F)F)(C(F)(F)F)N=C(c2cccc(Cl)c2)O1` [Compound 4, 2-(3-chlorophenyl)-4,4,6-tris(trifluoromethyl)-4H-1,3,5-oxadiazine], the pest or weed control at 11208.5 g/ha in assay [1], in assay [5] and in assay [6] was 100% throughout. The “Percent Weed Control GF” value in assay [2] worked out at 100%. In addition, in assay [3], the “Percent Weed Control TM” value is 100%. The “Percent Weed Control PS” value in assay [4] came to 90%.

On to `FC(F)(F)C(F)(F)C1=NC(C(F)(F)F)(C(F)(F)F)N=C(c2cccc(Cl)c2)O1` [Compound 13, 2-(3-chlorophenyl)-6-(pentafluoroethyl)-4,4-bis(trifluoromethyl)-4H-1,3,5-oxadiazine], for which the pest or weed control at 11208.5 g/ha in assay [1], in assay [5] and in assay [6] was 100% throughout. Moreover, the “Percent Weed Control GF” value in assay [2] is 100%. In addition, in assay [3], the “Percent Weed Control TM” value is 100%. The “Percent Weed Control PS” value in assay [4] is 100%.

For `Fc1ccc(C2=NC(C(F)(F)F)(C(F)(F)F)N=C(C(F)(F)C(F)(F)F)O2)cc1Cl` [Compound 20, 2-(3-chloro-4-fluorophenyl)-6-(pentafluoroethyl)-4,4-bis(trifluoromethyl)-4H-1,3,5-oxadiazine], the pest or weed control at 11208.5 g/ha in assay [1], in assay [5] and in assay [6] was 100% in each case. The “Percent Weed Control GF” value in assay [2] was determined as 0%. The “Percent Weed Control TM” value in assay [3] came out at 0%. In addition, the “Percent Weed Control PS” value in assay [4] was determined as 70%.

As to `FC(F)(F)C(F)(F)C1=NC(C(F)(F)F)(C(F)(F)F)N=C(c2ccc(Cl)cc2)O1` [Compound 24, 2-(4-chlorophenyl)-6-(pentafluoroethyl)-4,4-bis(trifluoromethyl)-4H-1,3,5-oxadiazine], the pest or weed control at 11208.5 g/ha in assay [1] is 100%; in assay [5], 90%; in assay [6] it was 100%. The “Percent Weed Control GF” value in assay [2] is 0%. Also, the “Percent Weed Control TM” value in assay [3] is listed as 0%. Moreover, in assay [4], the “Percent Weed Control PS” value is 100%.

Regarding `FC(F)(F)C(F)(F)C1=NC(C(F)(F)F)(C(F)(F)F)N=C(c2ccc(Br)cc2)O1` [Compound 25, 2-(4-bromophenyl)-6-(pentafluoroethyl)-4,4-bis(trifluoromethyl)-4H-1,3,5-oxadiazine], the pest or weed control at 11208.5 g/ha was found to be 100% in assay [1], 90% in assay [5] and 100% in assay [6]. The “Percent Weed Control GF” value in assay [2] is recorded as 30%. The “Percent Weed Control TM” value in assay [3] turned out to be 20%. Also, the “Percent Weed Control PS” value in assay [4] turned out to be 100%.
